In general, IC50 refers to the concentration needed to halve the response being measured.

This is an account of results in patent US9745299B2, “Substituted tricyclic benzimidazoles as kinase inhibitors” (SELVITA SA, priority 2012, dated 2017).

The subject of one experiment is HCT116 cells. The experiment in a line: MTS viability assay, HCT116. It is filed as cell-based. The following applies: Homo sapiens, HCT-116, HCT116, 72 hour incubation, read-out: IC50 [μM] HCT116 ED50. An excerpt: (§1) The viability of CDK8 expressing cells can be evaluated using a tetrazolium salt reduction cell-based assay. In viable cells this colorimetric assay can measure mitochondrial reduction of a tetrazolium component (MTS) into an […] formazan product. For MTS viability assay, human colon cancer cell lines were used (SW480 and HCT116 cell lines), containing elevated levels of CDK8 protein and highly dependent on its expression for proliferation [see, Firenstein et al. Nature 455 (25):547-551, (2008)]. These cell lines were used to determine the activity of the compounds provided herein to inhibit CDK8 in intact cells. Human tumor cell lines were obtained from ATCC (Rockville Md. USA). In each case, and by methods known to those practiced in the art of cell culture, vaiability was measured after 72 hour incubation with the compounds provided herein using a standard MTS protocol (CellTiter 96® AQueous Non-Radioactive Cell Proliferation Assay).
(§2) Briefly, cells were plated at 10,000-20,000 cells per well in DMEM medium supplemented with 10% fetal bovine serum. The compound plate was set up by aliquoting into column 1 of a 96-well plate, the negative control (DMSO), aliquoting into column 12 the positive control, and titrating the test compound in serial dilutions into columns 2-11. An aliquot from each well of the compound plate was transferred to the plated cells and then incubated at 37° C. in 5% CO2. 20 μL of MTS tetrazolium was added to each well of optical plate and the cells were incubated at 37° C. in 5% CO2 for 2 hours. The absorbance was measured at 490 nm using a microplate reader.
On the technique in general: Formazan colour is commonly taken as a measure of viable cells.

The target of the next experiment is T1, CDK9/CyclinT (Homo sapiens, UniProt P50750).
T1 construct: purchased Proqinase, Freiburg, Germany
T1 sequence (P50750 whole entry): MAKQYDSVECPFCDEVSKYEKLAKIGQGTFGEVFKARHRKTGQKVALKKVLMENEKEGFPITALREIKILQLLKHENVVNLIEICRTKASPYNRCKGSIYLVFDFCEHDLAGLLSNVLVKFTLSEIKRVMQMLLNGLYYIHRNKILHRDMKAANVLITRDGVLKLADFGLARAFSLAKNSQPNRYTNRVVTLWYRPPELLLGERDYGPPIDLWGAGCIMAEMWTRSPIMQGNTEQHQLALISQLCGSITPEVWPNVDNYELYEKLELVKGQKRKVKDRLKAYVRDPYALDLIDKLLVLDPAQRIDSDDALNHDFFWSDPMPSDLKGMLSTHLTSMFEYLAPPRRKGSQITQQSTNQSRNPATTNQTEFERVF
T1 sequence (O60563 whole entry partner): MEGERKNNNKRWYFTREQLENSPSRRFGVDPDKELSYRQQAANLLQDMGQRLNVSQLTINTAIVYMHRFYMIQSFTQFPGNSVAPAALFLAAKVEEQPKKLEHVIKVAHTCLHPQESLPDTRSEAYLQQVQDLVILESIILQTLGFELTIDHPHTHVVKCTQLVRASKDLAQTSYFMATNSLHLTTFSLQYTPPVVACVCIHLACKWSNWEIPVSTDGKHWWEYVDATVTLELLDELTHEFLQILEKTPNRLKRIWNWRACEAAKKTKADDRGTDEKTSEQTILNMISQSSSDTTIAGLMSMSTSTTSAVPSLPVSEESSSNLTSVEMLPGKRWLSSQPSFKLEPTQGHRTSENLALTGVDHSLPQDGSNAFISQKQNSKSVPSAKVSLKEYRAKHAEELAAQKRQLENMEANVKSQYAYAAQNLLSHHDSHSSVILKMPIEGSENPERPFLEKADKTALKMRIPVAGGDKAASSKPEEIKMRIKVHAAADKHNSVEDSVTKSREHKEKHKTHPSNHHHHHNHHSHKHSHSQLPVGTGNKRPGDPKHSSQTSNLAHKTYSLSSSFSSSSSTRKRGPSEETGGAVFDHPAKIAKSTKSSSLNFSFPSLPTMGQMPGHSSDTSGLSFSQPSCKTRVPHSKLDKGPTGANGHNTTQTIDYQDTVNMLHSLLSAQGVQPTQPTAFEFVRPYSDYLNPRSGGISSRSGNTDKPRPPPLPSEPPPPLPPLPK
Description: ADP-Glo Kinase Assay, CDK9/CyclinT. Also: ATP at apparent Km (26 µM). It is filed as biochemical. The settings on record: read-out: % inhibition at 1 μM CDK9/CyclinT. Here is the method: (§3) Testing of the compounds described in this invention was carried out using the ADP-Glo™ Kinase Assay from Promega Corporation (Madison, Wis., USA).
(§4) The ADP-Glo™ Kinase Assay is a luminescent ADP detection assay to measure kinase activity by quantifying the amount of ADP produced during a kinase reaction. The kinase assay is performed in kinase assay buffer (5 mM MOPS, pH 7.5, 5 mM MgCl2, 0.4 mM EDTA, 1.5 mM DTT). Test samples initially dissolved in DMSO at 10 mM were diluted with the assay buffer to 1000 nM. A 30 μL volume/well of a mixture of substrates containing ATP (final ATP concentration in each kinase assay was equal to its apparent ATP Km).
(§5) The assay was performed in two steps: first, after the kinase reaction, an equal volume of ADP-Glo™ Reagent was added to terminate the kinase reaction and deplete the remaining ATP. Second, the Kinase Detection Reagent was added to simultaneously convert ADP to ATP and allowed the newly synthesized ATP to be measured using a luciferase/luciferin reaction. The luminescent signal generated was proportional to the ADP concentration produced and was correlated with kinase activity.

Another experiment addresses T2, CDK8/CyclinC (Homo sapiens, UniProt P49336).
T2 construct: purchased ProQinase, Freiburg, Germany
The experiment in a line: ADP-Glo Kinase Assay, CDK8/CyclinC. Also: ATP at apparent Km (53 µM). It counts as biochemical. The settings on record: read-out: % inhibition at 1 μM CDK8/CyclinC. Here is the method:
as §3, §4, §5
A general note: ADP-Glo turns the ADP formed in a reaction into a luminescent signal.

A further experiment addresses T3, CDK2/CyclinE (Homo sapiens, UniProt P24941).
T3 construct: purchased Millipore, Billerica, Mass., USA
Description: ADP-Glo Kinase Assay, CDK2/CyclinE. It is filed as biochemical. The following applies: read-out: % inhibition at 1 μM CDK2/CyclinE. As to the method:
as §3, §4, §5

Another experiment concerns SW480 cells. The experiment in a line: MTS viability assay, SW480. It is filed as cell-based. The following applies: Homo sapiens, SW480, 72 hour incubation, read-out: IC50 [μM] SW-480 ED50.
Description: as §1, §2

T2 sequence (P49336 whole entry): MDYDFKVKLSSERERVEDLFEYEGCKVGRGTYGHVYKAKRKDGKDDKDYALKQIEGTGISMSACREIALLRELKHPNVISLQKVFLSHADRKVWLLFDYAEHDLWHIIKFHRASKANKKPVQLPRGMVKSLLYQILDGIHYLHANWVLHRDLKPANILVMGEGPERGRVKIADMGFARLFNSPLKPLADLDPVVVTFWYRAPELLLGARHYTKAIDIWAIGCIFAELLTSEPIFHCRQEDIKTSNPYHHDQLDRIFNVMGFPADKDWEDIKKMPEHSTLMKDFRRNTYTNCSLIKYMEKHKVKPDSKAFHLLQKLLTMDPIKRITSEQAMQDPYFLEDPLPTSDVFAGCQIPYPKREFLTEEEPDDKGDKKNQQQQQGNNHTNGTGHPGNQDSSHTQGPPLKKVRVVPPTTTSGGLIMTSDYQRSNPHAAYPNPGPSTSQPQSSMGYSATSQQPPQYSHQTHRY
T2 sequence (P24863 whole entry partner): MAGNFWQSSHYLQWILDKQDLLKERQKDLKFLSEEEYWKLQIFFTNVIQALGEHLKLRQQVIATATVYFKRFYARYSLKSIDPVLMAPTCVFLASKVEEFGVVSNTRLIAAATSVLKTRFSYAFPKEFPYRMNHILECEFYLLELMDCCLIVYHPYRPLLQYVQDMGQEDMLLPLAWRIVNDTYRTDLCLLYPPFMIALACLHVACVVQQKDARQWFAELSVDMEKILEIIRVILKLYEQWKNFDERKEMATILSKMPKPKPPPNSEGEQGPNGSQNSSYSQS

Take `Cc1c(Br)c(Br)c2c3c1nc(NCCN)n3CCC2` [Example 1O]: the IC50 in the experiment on HCT116 cells is 1.3 µM.
Turning to `O[C@H]1CCN(c2nc3c(Br)c(Br)c(Br)c4c3n2CCC4)C1` [Example 3AN], the inhibition at 1 µM at CDK9/CyclinT amounted to 21%; at CDK8/CyclinC, 85%; at CDK2/CyclinE it was 4%.
As for `CC1CNCCN1c1nc2c(Br)c(Br)c(Br)c3c2n1CCC3` (centres unmarked) [Example 1E], the IC50 in the experiment with SW480 cells was found to be 2.7 µM; in the experiment with HCT116 cells it was 1.9 µM. Moreover, the inhibition at 1 µM at CDK9/CyclinT came out at 20%; at CDK8/CyclinC, 89%; at CDK2/CyclinE, 2%.
As for `Brc1c(Br)c2c3c(nc(NC4CCNCC4)n3CCC2)c1Br` [Example 1J], the IC50 with HCT116 cells stood at 0.5 µM.
Consider `Cc1c(Br)c(Br)c2c3c1nc(N1CCC(N)CC1)n3CCC2` [Example 1AP], for which the inhibition at 1 µM at CDK9/CyclinT was 15%; on CDK8/CyclinC, 65%.
In the case of `Cc1c(Br)c(Br)c2c3c1nc(N1CCNC(C)C1)n3CCC2` (centres unmarked) [Example 3AH], the inhibition at 1 µM on CDK9/CyclinT came to 0%; at CDK8/CyclinC, 76%; on CDK2/CyclinE, 0%.
Regarding `Cc1c(Br)c(Br)c2c3c1nc(N1CCN(C)CC1)n3CCC2` [Example 3AK], the values for the inhibition at 1 µM at CDK9/CyclinT, at CDK8/CyclinC and at CDK2/CyclinE were -9%, 75% and 0%, respectively.
Consider `N[C@@H]1CCCC[C@H]1Nc1nc2c(Br)c(Br)c(Br)c3c2n1CCC3` [Example 1B], for which the IC50 turned out to be 0.5 µM in the experiment with SW480 cells and 1.3 µM in the experiment on HCT116 cells.
As for `Brc1c(Br)c2c3c(nc(N[C@H]4CCCNC4)n3CCC2)c1Br` [Example 1AW], the inhibition at 1 µM was found to be 41% at CDK9/CyclinT, 57% at CDK8/CyclinC and 0% on CDK2/CyclinE.
Consider `Brc1c(Br)c2c3c(nc(Nc4ccccc4)n3CCC2)c1Br` [Example 3C], for which the inhibition at 1 µM at CDK8/CyclinC was 59%.
As for `CCN(CC)c1nc2c(C)c(Br)c(Br)c3c2n1CCC3` [Example 3AP], the inhibition at 1 µM at CDK9/CyclinT was found to be 9%; on CDK8/CyclinC, 81%.
As for `Cc1c(Br)c(Br)c2c3c1nc(C1CCN(C(C)C)CC1)n3CCC2` [Example 7D], at CDK8/CyclinC, the inhibition at 1 µM stood at 66%.
In the case of `Cc1c(Br)c(Br)c2c3c1nc(N1CCSCC1)n3CCC2` [Example 3AR], the inhibition at 1 µM at CDK8/CyclinC stood at 75%.
For the compound `NCC1CCCN1c1nc2c(Br)c(Br)c(Br)c3c2n1CCC3` (centres unmarked) [Example 1H], the inhibition at 1 µM came to 8% at CDK9/CyclinT, 67% on CDK8/CyclinC and 0% on CDK2/CyclinE.
The corresponding values for `Nc1nc2c(I)c(Br)c(Br)c3c2n1CCC3` [Example 3Y] are 17%, 69% and 21%.
Turning to `OC1CCN(c2nc3c(I)c(Br)c(Br)c4c3n2CCC4)CC1` [Example 3AO], the inhibition at 1 µM is 22% at CDK9/CyclinT, 93% on CDK8/CyclinC and 16% at CDK2/CyclinE.
For `Cc1c(Br)c(Br)c2c3c1nc(N1CCN[C@H](C)C1)n3CCC2` [Example 3AT], the inhibition at 1 µM at CDK8/CyclinC was 82%.
Same read-out and setting: under `Brc1c(Br)c2c3c(nc(N4CCOCC4)n3CCC2)c1Br` [Example 3G] stands 80%.
Take `CC1CCc2c(Br)c(Br)c(Br)c3nc(N4CCNCC4)n1c23` (centres unmarked) [Example 1AU]: the half-inhibitory concentration (IC50) in the experiment with SW480 cells stood at 1.1 µM; in the experiment on HCT116 cells, 0.2 µM. Also, the inhibition at 1 µM came to 12% at CDK9/CyclinT and 90% on CDK8/CyclinC.
For `Brc1c(Br)c2c3c(nc(NC4CCCCC4)n3CCC2)c1Br` [Example 3E], the values for the inhibition at 1 µM at CDK9/CyclinT, at CDK8/CyclinC and at CDK2/CyclinE were 3%, 64% and 3%, respectively.
Take `Cc1c(Br)c(Br)c2c3c1nc(N1CCOCC1)n3CCC2` [Example 3AU]: the inhibition at 1 µM on CDK8/CyclinC is 76%.
Regarding `Cc1c(Br)c(Br)c2c3c1nc(N[C@H]1CCNC1)n3CCC2` [Example 1AL], the IC50 in the experiment with SW480 cells came out at 1.8 µM; in the experiment on HCT116 cells, 5.3 µM.
On to `Brc1c(Br)c2c3c(nc(Nc4ccncc4)n3CCC2)c1Br` [Example 3B], for which the inhibition at 1 µM on CDK8/CyclinC worked out at 45%.
With `NC1CCCN(c2nc3c(Br)c(Br)c(Br)c4c3n2CCC4)C1` (centres unmarked) [Example 1I], the 50% inhibitory concentration (IC50) in the experiment with HCT116 cells was determined as 1.5 µM.
Regarding `CN(C)CCNc1nc2c(Br)c(Br)c(Br)c3c2n1CCC3` [Example 3K], in the experiment on HCT116 cells, the IC50 amounted to 2.2 µM.
Same read-out and setting: the result for `NCCNc1nc2c([N+](=O)[O-])c(Br)c(Br)c3c2n1CCC3` [Example 1U] reads 1.6 µM.
In the case of `CC1CCCN1c1nc2c(I)c(Br)c(Br)c3c2n1CCC3` (centres unmarked) [Example 3S], the inhibition at 1 µM on CDK9/CyclinT amounted to 16%; at CDK8/CyclinC, 89%; on CDK2/CyclinE, 7%.
In the case of `Cc1c(Br)c(Br)c2c3c1nc(N1CCCNCC1)n3CCC2` [Example 1AZ], the inhibition at 1 µM at CDK8/CyclinC amounted to 61%. Also, the concentration for half-maximal inhibition (IC50) with HCT116 cells was 1.6 µM.
Turning to `CN(C)C1CCN(c2nc3c(Br)c(Br)c(Br)c4c3n2CCC4)C1` (centres unmarked) [Example 3AL], the inhibition at 1 µM turned out to be 18% on CDK9/CyclinT and 76% on CDK8/CyclinC.
As to `COC1CCN(c2nc3c(Br)c(Br)c(Br)c4c3n2CCC4)CC1` [Example 4A, 7,8,9-tribromo-2-(4-methoxypiperidin-1-yl)-5,6-dihydro-4H-imidazo[4,5,1-ij]quinoline], the values for the inhibition at 1 µM at CDK9/CyclinT, on CDK8/CyclinC and on CDK2/CyclinE were 0%, 75% and 8%, respectively.
Consider `NCC1CN(c2nc3c(Br)c(Br)c(Br)c4c3n2CCC4)CCO1` (centres unmarked) [Example 1AF], for which the IC50 with SW480 cells stood at 1.8 µM; in the experiment with HCT116 cells, 1.3 µM.
For `OCC1CCCN(c2nc3c(Br)c(Br)c(Br)c4c3n2CCC4)C1` (centres unmarked) [Example 3U], the inhibition at 1 µM at CDK9/CyclinT was 24%; at CDK8/CyclinC it was 92%; at CDK2/CyclinE it was 9%.
In the case of `Cc1c(Br)c2c3c(nc(NCCN)n3CCC2)c1Br` [Example 1P], the IC50 in the experiment with HCT116 cells is 1.4 µM.
As to `CC1(C)CN(c2nc3c(Br)c(Br)c(Br)c4c3n2CCC4)CCN1` [Example 3N], the inhibition at 1 µM on CDK9/CyclinT was determined as 18%; on CDK8/CyclinC, 58%.
The corresponding values for `Brc1c(Br)c2c3c(nc(NCCCN4CCCC4)n3CCC2)c1Br` [Example 3L] are 6% and 54%.
Turning to `CCN(CC)c1nc2c(I)c(Br)c(Br)c3c2n1CCC3` [Example 3X], the inhibition at 1 µM was determined as 41% at CDK9/CyclinT, 92% at CDK8/CyclinC and 9% at CDK2/CyclinE.
`COc1c(Br)c2c3c(nc(N4CCNCC4)n3CCC2)c1Br` [Example 1AN]: the inhibition at 1 µM on CDK9/CyclinT is 10%; at CDK8/CyclinC, 61%. The IC50 with HCT116 cells was 2.4 µM.
Consider `O[C@@H]1CCN(c2nc3c(Br)c(Br)c(Br)c4c3n2CCC4)C1` [Example 3AC], for which the values for the inhibition at 1 µM at CDK9/CyclinT, on CDK8/CyclinC and at CDK2/CyclinE were 26%, 94% and 12%, respectively.
Turning to `Cc1c(Br)c(Br)c2nc(N3CCNCC3)n3c2c1CCC3` [Example 1S], the values for the 50% inhibitory concentration (IC50) in the experiment on SW480 cells and in the experiment on HCT116 cells were 2.5 µM and 1.7 µM, respectively. Besides, the figures for the inhibition at 1 µM on CDK9/CyclinT and at CDK8/CyclinC were 4% and 54%, respectively.
`Brc1cc2nc(N3CCNCC3)n3c2c(c1Br)CCC3` [Example 1N]: the inhibition at 1 µM at CDK8/CyclinC is 49%. Besides, the IC50 in the experiment with HCT116 cells amounted to 4.3 µM.
For the compound `OCCCNc1nc2c(Br)c(Br)c(Br)c3c2n1CCC3` [Example 3F], at CDK8/CyclinC, the inhibition at 1 µM turned out to be 67%.
